Columns and labels:
Assay in all cases: DSF Tm panel
Assay type in all cases: binding
Settings in all cases: 10 μM compound
[1] = target: T1, MAP2K1A (Homo sapiens, UniProt Q02750)
T1 construct: purchased in-house DSF kinase panel (SGC-style construct names; the trailing letter is the construct ID)
Experimental: The synthesized urea-based derivatives were evaluated in a panel of kinases by differential scanning fluorescence (DSF) to investigate their selectivity profile. A positive ΔT m in the DSF assay indicates stabilization of the protein upon ligand binding in comparison to its apo state, with higher thermal shifts generally correlating with stronger binding. For this purpose, we used our internal kinase selectivity panel (∼90 kinases) along with staurosporine as a positive control. […] This was also reflected in the overall low selectivity score (S) throughout the series, which is determined by the ratio between the number of kinases that are stabilized above 5 °C and the total number of kinases tested (Figure ). Motivated by these findings, we further validated the entire series by orthogonal binding and activity assays to determine the in vitro and cellular potency and selectivity of the developed series in comparison to the selected reference compounds. […]
was performed as previously described.[1,2] Briefly, recombinant protein kinase domains at a concentration of 2 μM were mixed with 10 μM compound in a buffer containing 20 mM HEPES, […]
probe (1 µl per mL). Subsequently, temperature-dependent protein unfolding profiles were […]
emission filters were set to 465 nm and 590 nm, respectively. The temperature was raised with a step rate of 3 °C per minute. […]
inflection point of the transition curve. […]
previously.[3] In brief, STK10, STK3, STK4 and SLK were obtained as plasmids cloned in […]
Plasmids were transfected into
KD concentration taken from TracerDB (tracerdb.org)[4] were pipetted into white 384-well

[2] = target: T2, FGFR2A (Homo sapiens, UniProt P21802)
T2 construct: purchased in-house DSF kinase panel (SGC-style construct names; the trailing letter is the construct ID)

[3] = target: T3, CDK2A (Homo sapiens, UniProt P24941)
T3 construct: purchased in-house DSF kinase panel (SGC-style construct names; the trailing letter is the construct ID)

[4] = target: T4, STK39A (Homo sapiens, UniProt Q9UEW8)
T4 construct: purchased in-house DSF kinase panel (SGC-style construct names; the trailing letter is the construct ID)

[5] = target: T5, CASKA (Homo sapiens, UniProt O14936)
T5 construct: purchased in-house DSF kinase panel (SGC-style construct names; the trailing letter is the construct ID)
T5 sequence (O14936 12-276): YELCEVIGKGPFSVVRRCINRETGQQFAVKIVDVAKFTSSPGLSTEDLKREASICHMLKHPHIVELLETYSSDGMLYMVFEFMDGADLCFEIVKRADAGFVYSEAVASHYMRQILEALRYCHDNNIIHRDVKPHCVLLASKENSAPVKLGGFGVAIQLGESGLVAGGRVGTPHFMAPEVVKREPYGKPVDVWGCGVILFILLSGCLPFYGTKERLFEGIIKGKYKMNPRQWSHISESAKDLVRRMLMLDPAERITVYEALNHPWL

[6] = target: T6, STK17BA (Homo sapiens, UniProt O94768)
T6 construct: purchased in-house DSF kinase panel (SGC-style construct names; the trailing letter is the construct ID)
T6 sequence (O94768 25-329): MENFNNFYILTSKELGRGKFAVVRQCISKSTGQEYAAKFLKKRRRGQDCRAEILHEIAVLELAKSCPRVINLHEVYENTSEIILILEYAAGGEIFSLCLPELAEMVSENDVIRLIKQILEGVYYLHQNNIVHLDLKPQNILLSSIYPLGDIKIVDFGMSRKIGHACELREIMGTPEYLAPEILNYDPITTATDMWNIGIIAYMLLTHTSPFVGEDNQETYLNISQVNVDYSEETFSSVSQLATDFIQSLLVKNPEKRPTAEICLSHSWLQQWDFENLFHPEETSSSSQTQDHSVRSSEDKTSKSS

[7] = target: T7, EPHB3A (Homo sapiens, UniProt P54753)
T7 construct: purchased in-house DSF kinase panel (SGC-style construct names; the trailing letter is the construct ID)
T7 sequence (P54753 34-998): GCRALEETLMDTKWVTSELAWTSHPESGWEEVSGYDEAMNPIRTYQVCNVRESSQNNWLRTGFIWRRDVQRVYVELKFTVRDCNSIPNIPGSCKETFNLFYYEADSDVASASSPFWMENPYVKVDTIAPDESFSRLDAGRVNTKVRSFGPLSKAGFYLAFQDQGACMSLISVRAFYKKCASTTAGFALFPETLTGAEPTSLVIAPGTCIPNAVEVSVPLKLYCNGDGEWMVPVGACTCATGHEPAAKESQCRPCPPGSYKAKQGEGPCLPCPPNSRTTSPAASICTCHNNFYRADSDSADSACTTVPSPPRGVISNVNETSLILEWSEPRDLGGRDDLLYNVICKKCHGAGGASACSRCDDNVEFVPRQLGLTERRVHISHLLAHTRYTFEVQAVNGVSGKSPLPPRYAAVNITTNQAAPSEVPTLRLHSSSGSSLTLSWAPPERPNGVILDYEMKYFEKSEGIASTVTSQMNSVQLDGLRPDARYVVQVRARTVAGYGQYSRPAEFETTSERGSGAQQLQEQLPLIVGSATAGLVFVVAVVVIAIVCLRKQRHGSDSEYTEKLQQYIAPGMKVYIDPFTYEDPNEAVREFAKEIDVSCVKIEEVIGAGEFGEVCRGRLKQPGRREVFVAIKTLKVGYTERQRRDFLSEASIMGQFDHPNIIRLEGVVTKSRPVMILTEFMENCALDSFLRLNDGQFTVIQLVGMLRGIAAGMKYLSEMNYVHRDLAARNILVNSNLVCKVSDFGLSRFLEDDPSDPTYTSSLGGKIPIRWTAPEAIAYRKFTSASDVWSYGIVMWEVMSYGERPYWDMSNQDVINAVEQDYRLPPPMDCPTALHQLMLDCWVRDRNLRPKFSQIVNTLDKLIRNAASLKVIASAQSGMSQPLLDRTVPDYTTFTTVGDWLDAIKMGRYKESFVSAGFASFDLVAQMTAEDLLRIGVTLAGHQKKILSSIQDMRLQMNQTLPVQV

[8] = target: T8, DCAMKL1A (Homo sapiens, UniProt O15075)
T8 construct: purchased in-house DSF kinase panel (SGC-style construct names; the trailing letter is the construct ID)
T8 sequence (O15075 372-649): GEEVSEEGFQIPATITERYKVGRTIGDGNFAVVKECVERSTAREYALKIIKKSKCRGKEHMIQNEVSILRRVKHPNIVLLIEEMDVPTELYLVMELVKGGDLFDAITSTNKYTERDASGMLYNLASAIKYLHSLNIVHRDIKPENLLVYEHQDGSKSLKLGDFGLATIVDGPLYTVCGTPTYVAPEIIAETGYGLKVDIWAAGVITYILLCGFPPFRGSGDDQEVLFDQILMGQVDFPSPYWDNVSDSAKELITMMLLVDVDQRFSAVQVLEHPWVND

[9] = target: SLK (Homo sapiens, UniProt Q9H2G2); design: purchased in-house DSF kinase panel (SGC-style construct names; the trailing letter is the construct ID)

T1 sequence (Q02750 68-361): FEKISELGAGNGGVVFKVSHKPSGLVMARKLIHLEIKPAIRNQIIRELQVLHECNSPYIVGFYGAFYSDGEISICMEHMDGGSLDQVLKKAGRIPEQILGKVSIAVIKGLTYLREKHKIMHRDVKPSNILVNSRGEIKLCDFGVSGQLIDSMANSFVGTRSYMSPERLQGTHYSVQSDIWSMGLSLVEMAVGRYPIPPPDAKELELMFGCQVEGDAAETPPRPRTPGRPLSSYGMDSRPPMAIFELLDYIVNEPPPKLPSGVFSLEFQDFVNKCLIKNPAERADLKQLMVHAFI
T2 sequence (P21802 458-770): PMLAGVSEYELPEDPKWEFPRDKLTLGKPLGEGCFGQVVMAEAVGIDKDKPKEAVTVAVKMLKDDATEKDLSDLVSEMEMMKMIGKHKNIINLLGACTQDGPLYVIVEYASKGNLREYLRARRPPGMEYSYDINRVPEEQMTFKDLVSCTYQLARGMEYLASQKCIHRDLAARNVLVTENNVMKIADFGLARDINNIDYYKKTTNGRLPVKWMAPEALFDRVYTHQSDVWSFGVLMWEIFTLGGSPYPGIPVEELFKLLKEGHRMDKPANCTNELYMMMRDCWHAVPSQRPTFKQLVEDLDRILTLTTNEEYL

ΔTm at 10 µM [1] [°C]	ΔTm at 10 µM [2] [°C]	ΔTm at 10 µM [3] [°C]	ΔTm at 10 µM [4] [°C]	ΔTm at 10 µM [5] [°C]	ΔTm at 10 µM [6] [°C]	ΔTm at 10 µM [7] [°C]	ΔTm at 10 µM [8] [°C]	ΔTm at 10 µM [9] [°C]	Compound
0.7	2.8	1	1	1	2.7	0.5	1.9	1.6	C[C@H](NC(=O)Nc1ccc2cc1OCCOCCNc1ccn3ncc-2c3n1)c1ccccc1 [compound 34]
-0.2	1.5	1.4	1.6	0	3.4	0.6	0.6	3.3	CN1CCN(C(=O)Nc2ccc3cc2OCCOCCNc2ccn4ncc-3c4n2)CC1 [compound 35]
